For 28 molecules, TGI results are on record in PubChem BioAssay (NCI).

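Growth conditions: 96-well plates. Treatment: test compound, 48 hours, 5 concentrations. Analysis: linear interpolation between bracketing concentrations; unreached endpoints set to highest concentration. TGI denotes the concentration required for complete inhibition of growth.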

The test system of the first assay is SF-295 CNS. The experiment in a line: NCI anticancer screen, dose series, 48 h.
As to `CCOC(=O)c1cc(C2(O)CCN(Cc3ccccc3)C2=O)c(-c2cc(C)no2)[nH]1` (stereo not given), the TGI stood at 78.4 µM.

`Cc1cn(C2C=CC(COP(=O)(OCC3=CC(=O)c4ccccc4C3=O)N(C)CCCCCl)O2)c(=O)[nH]c1=O` (stereo not given) registered a TGI of 11.3 µM.

`OCC1CCCC(n2cnc3c(=S)nc[nH]c32)O1` (stereo not given) gave a TGI of more than 100 µM.

With `CC1(C)CC2(C)CC1CC2O` (stereo not given), the TGI is more than 100 µM.

`Clc1cc(N/N=C(/c2ccccc2)c2ncccn2)ncn1` had a TGI of 77.6 µM.

With `O=C1CC2C=CC(O)C(C1)C2` (stereo not given), the TGI was more than 100 µM.

As for `COC(=O)C1(Cc2ccccc2)Cc2cc3c(cc2C1=O)CCC3` (stereo not given), the TGI is more than 100 µM.

Turning to `CC(C)C(Sc1nc(-c2ccccc2)c(-c2ccccc2)[nH]1)C(=O)NNC(=S)Nc1ccccc1` (stereo not given), the TGI came to 35.5 µM.

`COC(=O)C1=C(C(=O)OC)C2OC1C1C2C2(C)C(C)=C(C)C1(C)S2=O` (stereo not given) showed a TGI of more than 84.8 µM.

In turn, `CCOC(=O)CCC(NC(=O)c1ccc(OCc2nc3cc(C(F)(F)F)ccc3nc2-c2ccccc2)cc1)C(=O)OCC` (stereo not given) registered a TGI of more than 100 µM.

As for `O=c1c2c3ccccc3[nH]c2c2cccc3c2n1CCC3`, the TGI is more than 100 µM.

Molecule `c1ccc([P+](CCNCCNCC[P+](c2ccccc2)(c2ccccc2)c2ccccc2)(c2ccccc2)c2ccccc2)cc1` returned a TGI of more than 100 µM.

Molecule `c1ccc(C[P+]2(c3ccccc3)c3ccccc3-c3ccccc32)cc1` came in with a TGI of more than 100 µM.

In turn, `COc1ccc2nc(-c3ccc(OCc4ccccc4)cc3)ccc2c1` displayed a TGI of more than 100 µM.

As for `CCOc1ccc(N/C(=C(/C(Cl)=C(/Cl)NCCN)[N+](=O)[O-])n2nnc3ccccc32)cc1`, the TGI is more than 100 µM.

`COC1(C)CC2N(C(=O)c3ccccc3)N=C(c3ccccc3)CC2(C)O1` (stereo not given) showed a TGI of more than 100 µM.

Molecule `O=C1CC(C(O)CO)CC(=O)N1` (stereo not given) had a TGI of more than 100 µM.

The molecule `O=C(Cc1nc2ccc(C(=O)c3ccccc3)cc2[nH]c1=O)C(=O)Nc1ccc(Br)cc1` registered a TGI of more than 100 µM.

Turning to `Cc1cc(-c2nc3ccccc3s2)ccc1NS(=O)(=O)O`, the TGI is more than 100 µM.

In the case of `COc1cc(COC(=O)N[C@H](C(=O)O)C(C)(C)C)c([N+](=O)[O-])cc1OC`, the TGI was more than 100 µM.

Molecule `Cc1c(/C=N\NC(=S)N2CCN(C(=S)N/N=C\c3c(C)n(C)n(-c4ccccc4)c3=O)CC2)c(=O)n(-c2ccccc2)n1C` gave a TGI of more than 100 µM.

`CCN(CC)CCn1c2cc3c(cc2c(=O)c2cccnc21)OCCO3` came in with a TGI of more than 10 µM.

Molecule `O=C(NS(=O)(=O)Nc1ccc(Cl)cc1)OCc1ccc(Cl)cc1Cl` had a TGI of 42.7 µM.

The subject of the next assay is SK-MEL-2 melanoma. The assay is described as follows: NCI anticancer screen, dose series, 48 h.
For the molecule `Nc1nc2ncc(SCc3ccc(C(=O)NC(CCC(=O)O)C(=O)O)cc3)cc2c(=O)[nH]1` (stereo not given), the TGI was more than 100 µM.

In turn, `COc1ccc2c(c1)c1c(n2CCN2CCOCC2)-c2ccccc2CC1` had a TGI of 82.5 µM.

In turn, `CCOC(=O)c1cc(C2(O)CCN(Cc3ccccc3)C2=O)c(-c2cc(C)no2)[nH]1` (stereo not given) gave a TGI of more than 100 µM.

`Cc1cn(C2C=CC(COP(=O)(OCC3=CC(=O)c4ccccc4C3=O)N(C)CCCCCl)O2)c(=O)[nH]c1=O` (stereo not given) had a TGI of 27.2 µM.

With `OCC1CCCC(n2cnc3c(=S)nc[nH]c32)O1` (stereo not given), the TGI was more than 100 µM.

Take `COc1ccc(/C(=C/n2ccnc2)C(=O)c2ccc(OC)c(OC)c2)cc1`: the TGI was more than 100 µM.

Consider `Clc1cc(N/N=C(/c2ccccc2)c2ncccn2)ncn1`, for which the TGI was 82.6 µM.

In turn, `O=C1CC2C=CC(O)C(C1)C2` (stereo not given) showed a TGI of more than 100 µM.

Take `COC(=O)C1(Cc2ccccc2)Cc2cc3c(cc2C1=O)CCC3` (stereo not given): the TGI amounted to 53.1 µM.

As for `CC(C)C(Sc1nc(-c2ccccc2)c(-c2ccccc2)[nH]1)C(=O)NNC(=S)Nc1ccccc1` (stereo not given), the TGI came to 36.6 µM.

For the molecule `COC(=O)C1=C(C(=O)OC)C2OC1C1C2C2(C)C(C)=C(C)C1(C)S2=O` (stereo not given), the TGI is 28 µM.

For the molecule `CCOC(=O)CCC(NC(=O)c1ccc(OCc2nc3cc(C(F)(F)F)ccc3nc2-c2ccccc2)cc1)C(=O)OCC` (stereo not given), the TGI worked out at 54.1 µM.

Take `CC12CC(c3ccccc3O1)C(C(=O)Nc1ccc(F)cc1)C(=O)N2` (stereo not given): the TGI was more than 100 µM.

In turn, `c1ccc([P+](CCNCCNCC[P+](c2ccccc2)(c2ccccc2)c2ccccc2)(c2ccccc2)c2ccccc2)cc1` yielded a TGI of more than 100 µM.

For `CCOc1ccc(N/C(=C(/C(Cl)=C(/Cl)NCCN)[N+](=O)[O-])n2nnc3ccccc32)cc1`, the TGI was more than 100 µM.

Turning to `COC1(C)CC2N(C(=O)c3ccccc3)N=C(c3ccccc3)CC2(C)O1` (stereo not given), the TGI is more than 100 µM.

The molecule `O=C(Cc1nc2ccc(C(=O)c3ccccc3)cc2[nH]c1=O)C(=O)Nc1ccc(Br)cc1` displayed a TGI of more than 100 µM.

With `Cc1ccccc1C1OC1C(=O)c1ccccc1N` (stereo not given), the TGI was more than 100 µM.

Consider `Cc1c(/C=N\NC(=S)N2CCN(C(=S)N/N=C\c3c(C)n(C)n(-c4ccccc4)c3=O)CC2)c(=O)n(-c2ccccc2)n1C`, for which the TGI was found to be 92.7 µM.

In turn, `O=C(NS(=O)(=O)Nc1ccc(Cl)cc1)OCc1ccc(Cl)cc1Cl` gave a TGI of 90.2 µM.

A further assay has as its system U251 CNS. The assay is described as follows: NCI anticancer screen, dose series, 48 h.
Turning to `Nc1nc2ncc(SCc3ccc(C(=O)NC(CCC(=O)O)C(=O)O)cc3)cc2c(=O)[nH]1` (stereo not given), the TGI is more than 100 µM.

In the case of `COc1ccc2c(c1)c1c(n2CCN2CCOCC2)-c2ccccc2CC1`, the TGI was more than 100 µM.

With `CCOC(=O)c1cc(C2(O)CCN(Cc3ccccc3)C2=O)c(-c2cc(C)no2)[nH]1` (stereo not given), the TGI was more than 100 µM.

Consider `Cc1cn(C2C=CC(COP(=O)(OCC3=CC(=O)c4ccccc4C3=O)N(C)CCCCCl)O2)c(=O)[nH]c1=O` (stereo not given), for which the TGI is 17.7 µM.

In the case of `OCC1CCCC(n2cnc3c(=S)nc[nH]c32)O1` (stereo not given), the TGI was more than 100 µM.

`CC1(C)CC2(C)CC1CC2O` (stereo not given) had a TGI of more than 100 µM.

Consider `COc1ccc(/C(=C/n2ccnc2)C(=O)c2ccc(OC)c(OC)c2)cc1`, for which the TGI was more than 100 µM.

`Clc1cc(N/N=C(/c2ccccc2)c2ncccn2)ncn1` displayed a TGI of more than 100 µM.

`O=C1CC2C=CC(O)C(C1)C2` (stereo not given) displayed a TGI of more than 100 µM.

`COC(=O)C1(Cc2ccccc2)Cc2cc3c(cc2C1=O)CCC3` (stereo not given) had a TGI of more than 100 µM.

On to `CC(C)C(Sc1nc(-c2ccccc2)c(-c2ccccc2)[nH]1)C(=O)NNC(=S)Nc1ccccc1` (stereo not given), for which the TGI came out at 30 µM.

In turn, `COC(=O)C1=C(C(=O)OC)C2OC1C1C2C2(C)C(C)=C(C)C1(C)S2=O` (stereo not given) yielded a TGI of 26.8 µM.

On to `CCOC(=O)CCC(NC(=O)c1ccc(OCc2nc3cc(C(F)(F)F)ccc3nc2-c2ccccc2)cc1)C(=O)OCC` (stereo not given), for which the TGI was more than 100 µM.

`CC12CC(c3ccccc3O1)C(C(=O)Nc1ccc(F)cc1)C(=O)N2` (stereo not given) showed a TGI of more than 100 µM.

Consider `O=c1c2c3ccccc3[nH]c2c2cccc3c2n1CCC3`, for which the TGI was more than 100 µM.

Molecule `c1ccc([P+](CCNCCNCC[P+](c2ccccc2)(c2ccccc2)c2ccccc2)(c2ccccc2)c2ccccc2)cc1` yielded a TGI of more than 100 µM.

`CCOc1ccc(N/C(=C(/C(Cl)=C(/Cl)NCCN)[N+](=O)[O-])n2nnc3ccccc32)cc1` gave a TGI of more than 100 µM.

`O=C1CC(C(O)CO)CC(=O)N1` (stereo not given) came in with a TGI of more than 100 µM.

`O=C(Cc1nc2ccc(C(=O)c3ccccc3)cc2[nH]c1=O)C(=O)Nc1ccc(Br)cc1` came in with a TGI of more than 100 µM.

The molecule `Cc1ccccc1C1OC1C(=O)c1ccccc1N` (stereo not given) came in with a TGI of more than 100 µM.

With `Cc1cc(-c2nc3ccccc3s2)ccc1NS(=O)(=O)O`, the TGI is more than 100 µM.

The molecule `COc1cc(COC(=O)N[C@H](C(=O)O)C(C)(C)C)c([N+](=O)[O-])cc1OC` returned a TGI of more than 100 µM.
